Assay [1] addresses T1, GPR40 (Homo sapiens, UniProt O14842).
T1 construct: expressed in transfected cells; host or cells: CHO cell line stably expressing GPR40 and aequorin
Kind of assay: Competition binding with 3H-AM-1638 on A9_GPR40 membranes. The conditions noted are these: unlabelled competitor. As to the method:
GPR40 aequorin, plasmid titration, and inositol phosphate assays were performed as described. For aequorin assays, in addition to transient transfection of GPR40 into CHO cells, a CHO cell line stably expressing both GPR40 and aequorin was generated. GLUTag cells were obtained under a license from Dr. Daniel Drucker, University of Toronto. Competition binding experiments were performed using membranes prepared from A9_GPR40 cells. […] Competition binding assays were carried out in 20 mM Hepes pH 7.5, 5 mM MgCl2, 100 mM NaCl and 0.1% (w/v) free fatty acid BSA and bound radioligand was collected on 96-well GF/C filter plates.

In assay [2] the target is PPAR delta (Homo sapiens, UniProt Q03181). Kind of assay: PPAR-delta luciferase reporter assay. The settings on record: concentrations up to 10 µM. It counts as cell-based. A general note: A reporter such as luciferase makes a cellular process visible.
Sequence of PPAR delta (Q03181 whole entry): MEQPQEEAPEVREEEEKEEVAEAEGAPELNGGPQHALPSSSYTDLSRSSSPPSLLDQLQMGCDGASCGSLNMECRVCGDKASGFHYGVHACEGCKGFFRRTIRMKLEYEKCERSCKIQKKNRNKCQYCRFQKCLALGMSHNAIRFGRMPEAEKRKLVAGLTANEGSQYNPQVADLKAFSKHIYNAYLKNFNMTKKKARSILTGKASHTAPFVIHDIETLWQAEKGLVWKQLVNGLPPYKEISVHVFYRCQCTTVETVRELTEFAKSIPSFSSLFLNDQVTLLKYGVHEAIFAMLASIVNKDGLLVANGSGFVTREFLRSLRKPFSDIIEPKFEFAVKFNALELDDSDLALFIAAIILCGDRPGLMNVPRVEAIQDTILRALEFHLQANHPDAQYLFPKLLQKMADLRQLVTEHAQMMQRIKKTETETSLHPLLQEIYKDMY

T1 sequence (O14842 whole entry): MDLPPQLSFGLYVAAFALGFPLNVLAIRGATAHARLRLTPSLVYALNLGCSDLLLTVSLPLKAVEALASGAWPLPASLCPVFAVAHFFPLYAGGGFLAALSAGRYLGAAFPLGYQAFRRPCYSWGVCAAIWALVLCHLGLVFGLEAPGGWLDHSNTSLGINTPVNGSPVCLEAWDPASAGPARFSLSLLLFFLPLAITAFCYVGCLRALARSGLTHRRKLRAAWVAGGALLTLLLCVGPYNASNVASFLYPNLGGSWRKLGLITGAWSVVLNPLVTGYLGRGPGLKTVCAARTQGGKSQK

With `COc1ccc(F)c(-c2ccc(COc3cccc([C@@H](CC(=O)O)C4CC4)c3)cc2C2=CCCC2(C)C)c1` [AM-1638], the “displacement of 3H-AM-1638” value in assay [1] is “displaced ^3H-AM-1638”. Further, the “activation of PPAR delta” value in assay [2] was “did not activate”.

Source of the values: paper PMC3467217, “A Potent Class of GPR40 Full Agonists Engages the EnteroInsular Axis to Promote Glucose Control in Rodents” (PLoS ONE, 2012).
